According to PubChem BioAssay (NCI):
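How tested: cells in 96-well plates exposed to compound for 48 hours at five concentrations. Abbreviation: GI50, concentration required for 50% inhibition of growth. TGI denotes the concentration required for complete inhibition of growth.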

Tests used:
Assay in all cases: NCI anticancer screen, dose series, 48 h
HT29 colon = tested on: HT29 colon
OVCAR-8 ovarian = tested on: OVCAR-8 ovarian
SK-MEL-2 melanoma = tested on: SK-MEL-2 melanoma
SK-MEL-28 melanoma = tested on: SK-MEL-28 melanoma
SN12C renal = tested on: SN12C renal
SNB-19 CNS = tested on: SNB-19 CNS
UO-31 renal = tested on: UO-31 renal
LOX IMVI melanoma = tested on: LOX IMVI melanoma
CCRF-CEM leukemia = tested on: CCRF-CEM leukemia
NCI/ADR-RES ovarian = tested on: NCI/ADR-RES ovarian

Structure (SMILES)	TGI (HT29 colon)	TGI (OVCAR-8 ovarian)	TGI (SK-MEL-2 melanoma)	TGI (SK-MEL-28 melanoma)	TGI (SN12C renal)	TGI (SNB-19 CNS)	TGI (UO-31 renal)	TGI (LOX IMVI melanoma)	TGI (CCRF-CEM leukemia)	GI50 (HT29 colon)	GI50 (NCI/ADR-RES ovarian)	TGI (NCI/ADR-RES ovarian)	GI50 (OVCAR-8 ovarian)	GI50 (SK-MEL-2 melanoma)	GI50 (SK-MEL-28 melanoma)	GI50 (SN12C renal)	GI50 (SNB-19 CNS)	GI50 (UO-31 renal)	GI50 (CCRF-CEM leukemia)	GI50 (LOX IMVI melanoma)
NCCCSCC(=O)O	> 100 µM	> 100 µM	> 100 µM	> 100 µM	> 100 µM	> 100 µM	> 100 µM	–	–	–	–	–	–	–	–	–	–	–	–	–
COC(=O)C1=CCS(=O)(=O)C1	> 100 µM	> 100 µM	> 100 µM	> 100 µM	> 100 µM	> 100 µM	> 100 µM	> 100 µM	–	–	–	–	–	–	–	–	–	–	–	–
O=C1C2Cc3ccccc3CN2C(=O)N1CCN1CCOCC1 (stereo not given)	–	> 100 µM	> 100 µM	> 100 µM	> 100 µM	> 100 µM	> 100 µM	> 100 µM	> 100 µM	–	–	–	–	–	–	–	–	–	–	–
COc1ccc(/C=C\c2cc(OC)c(OC(C)=O)c(OC)c2)cc1	47.9 µM	76.7 µM	58.8 µM	26.2 µM	30.8 µM	> 100 µM	50.1 µM	–	57.3 µM	–	–	–	–	–	–	–	–	–	–	–
C=C(C=O)[C@@H]1CC=C(C=O)CC1	> 100 µM	> 100 µM	92.5 µM	5.87 µM	33.9 µM	71.2 µM	> 76 µM	–	–	3.54 µM	3.89 µM	> 100 µM	3.69 µM	25.6 µM	2.43 µM	4.31 µM	17.4 µM	5.3 µM	–	–
OCC1C2C=CC(O2)[C@H]1CO (stereo not given in full)	> 100 µM	> 100 µM	–	> 100 µM	> 100 µM	> 100 µM	> 100 µM	> 100 µM	> 100 µM	–	–	–	–	–	–	–	–	–	–	–
Nc1c(-c2ccc(-c3c(N)[n+]([O-])c4ccccc4[n+]3[O-])cc2)[n+]([O-])c2ccccc2[n+]1[O-]	27.1 µM	> 100 µM	28.9 µM	20.9 µM	34.4 µM	29 µM	32.6 µM	25.6 µM	> 100 µM	–	–	–	–	–	–	–	–	–	–	–
COc1cc(Nc2nccc(-c3cnn4ncccc34)n2)cc(OC)c1	0.709 µM	> 12.7 µM	–	0.38 µM	> 25 µM	> 25 µM	0.196 µM	> 9.54 µM	–	0.0842 µM	0.0937 µM	2.26 µM	0.0802 µM	–	0.0726 µM	0.0942 µM	0.0836 µM	0.055 µM	0.0668 µM	0.0539 µM
Cc1ccc(Sc2cc([N+](=O)[O-])cc(Sc3ccc(C)cc3)c2Sc2ccc(C)cc2)cc1	> 100 µM	> 100 µM	> 100 µM	–	> 100 µM	> 100 µM	> 100 µM	> 100 µM	65.4 µM	–	–	–	–	–	–	–	–	–	–	–
O=C1CCC(=O)C12CCc1ccccc12	> 100 µM	> 100 µM	–	> 100 µM	> 100 µM	–	> 100 µM	> 100 µM	–	–	–	–	–	–	–	–	–	–	–	–
CC(=O)Oc1cc(OC(C)=O)c(OC(C)=O)c2c1CC1C(=O)C3(CCc4ccccc43)C(=O)C1C2 (stereo not given)	40.9 µM	36.7 µM	–	36.5 µM	31 µM	–	36.6 µM	26.2 µM	75.9 µM	–	–	–	–	–	–	–	–	–	–	–
O=C1OC(=O)C2C1C1(c3ccccc3)OC2(c2ccccc2)c2c(Br)c(Br)c(Br)c(Br)c21 (stereo not given)	> 100 µM	> 100 µM	> 100 µM	–	> 100 µM	> 100 µM	> 100 µM	> 100 µM	> 100 µM	–	–	–	–	–	–	–	–	–	–	–
